Source: patent US4826982A, “Quinolonecarboxylic acid derivatives” (Kyorin Pharmaceutical Co., Ltd., priority 1985, dated 1989)
In brackets after ≈: the same amount, converted by molar mass.

Legend:
gram-negative bacteria = details: background art; CI-934 compared with Norfloxacin and Ciprofloxacin; cited from earlier work
gram-positive bacteria = details: background art; cited from earlier work
Pst. micros UPI 5464-1 = experiment: Antibacterial spectrum, MIC; details: Parvimonas micra, UPI54641
[1] = system: Veillonella parvula KYA 10790; experiment: Antibacterial spectrum, MIC; details: KYA10790
S. epidermidis IID 866 = experiment: Antibacterial spectrum, MIC; type: cell-based; details: Staphylococcus epidermidis, IID866; 10^6 cells/ml; Gram +; standard strain
Description: (§1) In vitro antibacterial activity (standard strains)
(§2) Organism (10^6 cells/ml)

[2] = system: Escherichia coli NIHJ JC-2; experiment: Antibacterial spectrum, MIC; type: cell-based; details: NIHJJC2, 10^6 cells/ml, Gram -, standard strain
Description: as §1, §2

Shigella sonnei IID 969 = experiment: Antibacterial spectrum, MIC; type: cell-based; details: IID969, 10^6 cells/ml, Gram -, standard strain
Description: as §1, §2

B. fragilis 0558 = experiment: Antibacterial spectrum, MIC; type: cell-based; details: Bacteroides fragilis, 10^6 cells/ml, Gram -, standard strain
Description: as §1, §2

[3] = system: S. aureus IID 670 (Terajima); experiment: Antibacterial spectrum, MIC; type: cell-based; details: Staphylococcus aureus, IID670; 10^6 cells/ml; Gram +; standard strain
Description: as §1, §2

B. fragilis 25285 = experiment: Antibacterial spectrum, MIC; type: cell-based; details: Bacteroides fragilis, 10^6 cells/ml, Gram -, standard strain
Description: as §1, §2

K. pneumoniae 1-220S = experiment: Antibacterial spectrum, MIC; type: cell-based; details: Klebsiella pneumoniae, 1220S; 10^6 cells/ml; Gram -; standard strain
Description: as §1, §2

[4] = system: Staphylococcus aureus 209 P; experiment: Antibacterial spectrum, MIC; type: cell-based; details: 10^6 cells/ml, Gram +, standard strain
Description: as §1, §2

B. distasonis 8503 = experiment: Antibacterial spectrum, MIC; type: cell-based; details: Parabacteroides distasonis, 10^6 cells/ml, Gram -, standard strain
Description: as §1, §2

[5] = system: Acinetobacter anitratus IID 876; experiment: Antibacterial spectrum, MIC; type: cell-based; details: Acinetobacter calcoaceticus, IID876; 10^6 cells/ml; Gram -; standard strain
Description: as §1, §2

[6] = system: Bacteroides fragilis GM 7000; experiment: Antibacterial spectrum, MIC; details: GM7000
[7] = system: Pseudomonas aeruginosa V-1; experiment: Antibacterial spectrum, MIC; details: V1
[8] = system: Clostridium perfringens KYA 13123; experiment: microbe, parasite or virus in culture; details: KYA13123
[9] = system: Eubacterium lentum GAI 5242; experiment: microbe, parasite or virus in culture; details: Eggerthella lenta, GAI5242
[10] = system: Peptococcus magnus KY 017; experiment: microbe, parasite or virus in culture; details: Finegoldia magna, KY017
[11] = system: Peptostreptococcus anaerobius KYA 27337; experiment: Antibacterial spectrum, MIC; type: cell-based; details: KYA27337
C. ramosum = experiment: Antibacterial spectrum, MIC; type: cell-based; details: Thomasclavelia ramosa
[12] = system: Morganella morganii IID 602; experiment: Antibacterial spectrum, MIC; type: cell-based; details: IID602
S. pyogenes IID 692 = experiment: microbe, parasite or virus in culture; details: Streptococcus pyogenes, IID692
[13] = system: Propionibacterium acens 11828; experiment: Antibacterial spectrum, MIC; type: cell-based
[14] = system: B. thetaiotaomicron (0661); experiment: Antibacterial spectrum, MIC; type: cell-based; details: Bacteroides thetaiotaomicron
[15] = system: Bacillus subtilis PCI 219; experiment: Antibacterial spectrum, MIC by method recommended by Japan Society of Chemotherapy; type: cell-based; details: PCI219, 10^6 cells/ml, Gram +, standard strain
Description: as §1, §2

[16] = system: Fusobacterium necrophorum S-45; experiment: Antibacterial spectrum, MIC; type: cell-based; details: S45, 10^6 cells/ml, Gram -, standard strain
Description: as §1, §2

P. mirabilis IID 994 = experiment: Antibacterial spectrum, MIC; type: cell-based; details: Proteus mirabilis, IID994; 10^6 cells/ml; Gram -; standard strain
Description: as §1, §2

[17] = system: Alcaligenes faecalis 0114002; experiment: Antibacterial spectrum, MIC; type: cell-based; details: 10^6 cells/ml, Gram -, standard strain
Description: as §1, §2

[18] = system: Citrobacter freundii IID 976; experiment: Antibacterial spectrum, MIC; type: cell-based; details: IID976, 10^6 cells/ml, Gram -, standard strain
Description: as §1, §2

[19] = system: Streptococcus pyogenes (S-8); experiment: Antibacterial spectrum, MIC; type: cell-based; details: 10^6 cells/ml, Gram +, standard strain
Description: as §1, §2

[20] = system: Klebsiella pneumoniae KY(GN)6445; experiment: Antibacterial spectrum, MIC; type: cell-based; details: 10^6 cells/ml, Gram -, standard strain
Description: as §1, §2

E. coli ATCC l0536 = experiment: Antibacterial spectrum, MIC; type: cell-based; details: Escherichia coli, ATCCL0536
Description: as §1, §2

[21] = system: Enterobacter cloacae IID 977; experiment: Antibacterial spectrum, MIC; type: cell-based; details: IID977, 10^6 cells/ml, Gram -, standard strain
Description: as §1, §2

[22] = system: Proteus vulgaris IFO 3167; experiment: Antibacterial spectrum, MIC; type: cell-based; details: IFO3167, 10^6 cells/ml, Gram -, standard strain
Description: as §1, §2

E. faecalis IID 682 = experiment: Antibacterial spectrum, MIC; type: cell-based; details: Enterococcus faecalis, IID682; 10^6 cells/ml; Gram +; standard strain
Description: as §1, §2

[23] = system: Serratia marcescens IID 618; experiment: Antibacterial spectrum, MIC; type: cell-based; details: IID618, 10^6 cells/ml, Gram -, standard strain
Description: as §1, §2

S. pneumoniae IID 552 = experiment: Antibacterial spectrum, MIC; type: cell-based; details: Streptococcus pneumoniae, IID552; 10^6 cells/ml; Gram +; standard strain
Description: as §1, §2

[24] = system: Salmonella enteritidis IID 604; experiment: Antibacterial spectrum, MIC; type: cell-based; details: Salmonella enterica; 10^6 cells/ml; Gram -; standard strain
Description: as §1, §2

P. aeruginosa IFO 12689 = experiment: microbe, parasite or virus in culture; details: Pseudomonas aeruginosa, IFO12689
F. varium KYA 8501 = experiment: Antibacterial spectrum, MIC; type: cell-based; details: Fusobacterium varium, KYA8501
[25] = system: Yersinia enterocolitica IID 981; experiment: microbe, parasite or virus in culture; type: cell-based; details: IID981

## CCNCC1CCN(c2c(F)cc3c(=O)c(C(=O)O)cn(CC)c3c2F)C1 (centres unmarked) [CI-934, 1-ethyl-7-[3-[(ethylamino)methyl]-1-pyrrolidinyl]-6,8-difluoro-1,4-dihydro-4-oxo-3-quinolinecarboxylic acid]
gram-negative bacteria
  activity against gram-negative bacteria: weaker activity against gram-negative bacteria than such known compounds as Norfloxacin and Ciprofloxacin
gram-positive bacteria
  activity against gram-positive bacteria: relatively strong activity against gram-positive bacteria

## O=C(O)c1cn(C2CC2)c2cc(N3CCNCC3)c(F)cc2c1=O [CPFX, ciprofloxacin, reference compound]
Pst. micros UPI 5464-1
  MIC: 0.2 µg/mL (≈ 0.604 µM)
[1]
  MIC: 0.2 µg/mL (≈ 0.604 µM)
S. epidermidis IID 866
  MIC: 0.2 µg/mL (≈ 0.604 µM)
[2]
  MIC: ≤ 0.0063 µg/mL
Shigella sonnei IID 969
  MIC: 0.0063 µg/mL (≈ 0.019 µM)
B. fragilis 0558
  MIC: 3.13 µg/mL (≈ 9.45 µM)
[3]
  MIC: 0.2 µg/mL (≈ 0.604 µM)
B. fragilis 25285
  MIC: 6.25 µg/mL (≈ 18.9 µM)
K. pneumoniae 1-220S
  MIC: 0.05 µg/mL (≈ 0.151 µM)
[4]
  MIC: 0.2 µg/mL (≈ 0.604 µM)
B. distasonis 8503
  MIC: 6.25 µg/mL (≈ 18.9 µM)
[5]
  MIC: 0.2 µg/mL (≈ 0.604 µM)
[6]
  MIC: 6.25 µg/mL (≈ 18.9 µM)
[7]
  MIC: 0.05 µg/mL (≈ 0.151 µM)

## O=C(O)c1cn(C2CC2)c2c(Br)c(N3CCNCC3)c(F)cc2c1=O [Exp. 17, 8-Bromo-1-cyclopropyl-6-fluoro-1,4-dihydro-4-oxo-7-(1-piperazinyl)-3-quinolinecarboxylic acid]
[8]
  MIC: 0.78 µg/mL (≈ 1.9 µM)
[9]
  MIC: 0.39 µg/mL (≈ 0.951 µM)
[10]
  MIC: 0.39 µg/mL (≈ 0.951 µM)
Pst. micros UPI 5464-1
  MIC: 0.39 µg/mL (≈ 0.951 µM)
[11]
  MIC: 1.56 µg/mL (≈ 3.8 µM)
C. ramosum
  MIC: 6.25 µg/mL (≈ 15.2 µM)
[12]
  MIC: 0.05 µg/mL (≈ 0.122 µM)
S. pyogenes IID 692
  MIC: 0.78 µg/mL (≈ 1.9 µM)
[13]
  MIC: 6.25 µg/mL (≈ 15.2 µM)
[14]
  MIC: 1.56 µg/mL (≈ 3.8 µM)
[1]
  MIC: 0.39 µg/mL (≈ 0.951 µM)
[15]
  MIC: 0.05 µg/mL (≈ 0.122 µM)
[16]
  MIC: 0.78 µg/mL (≈ 1.9 µM)
P. mirabilis IID 994
  MIC: 0.025 µg/mL (≈ 0.0609 µM)
[17]
  MIC: 0.2 µg/mL (≈ 0.488 µM)
[18]
  MIC: 0.025 µg/mL (≈ 0.0609 µM)
S. epidermidis IID 866
  MIC: 0.2 µg/mL (≈ 0.488 µM)
[2]
  MIC: 0.0125 µg/mL (≈ 0.0305 µM)
[19]
  MIC: 0.39 µg/mL (≈ 0.951 µM)
Shigella sonnei IID 969
  MIC: 0.025 µg/mL (≈ 0.0609 µM)
B. fragilis 0558
  MIC: 0.78 µg/mL (≈ 1.9 µM)
[20]
  MIC: 0.025 µg/mL (≈ 0.0609 µM)
E. coli ATCC l0536
  MIC: 0.025 µg/mL (≈ 0.0609 µM)
[3]
  MIC: 0.2 µg/mL (≈ 0.488 µM)
[21]
  MIC: 0.05 µg/mL (≈ 0.122 µM)
[22]
  MIC: 0.025 µg/mL (≈ 0.0609 µM)
B. fragilis 25285
  MIC: 0.78 µg/mL (≈ 1.9 µM)
K. pneumoniae 1-220S
  MIC: 0.05 µg/mL (≈ 0.122 µM)
E. faecalis IID 682
  MIC: 0.39 µg/mL (≈ 0.951 µM)
[23]
  MIC: 0.05 µg/mL (≈ 0.122 µM)
[4]
  MIC: 0.1 µg/mL (≈ 0.244 µM)
B. distasonis 8503
  MIC: 1.56 µg/mL (≈ 3.8 µM)
S. pneumoniae IID 552
  MIC: 0.78 µg/mL (≈ 1.9 µM)
[24]
  MIC: 0.025 µg/mL (≈ 0.0609 µM)
[5]
  MIC: 0.1 µg/mL (≈ 0.244 µM)
[6]
  MIC: 0.78 µg/mL (≈ 1.9 µM)
P. aeruginosa IFO 12689
  MIC: 0.78 µg/mL (≈ 1.9 µM)
[7]
  MIC: 0.39 µg/mL (≈ 0.951 µM)
F. varium KYA 8501
  MIC: 3.13 µg/mL (≈ 7.63 µM)
[25]
  MIC: 0.05 µg/mL (≈ 0.122 µM)
